The record followed here is patent US12486269B2 (Aconcagua Bio, Inc., priority 2024, dated 2025).

For test [1], the target named is T1, human calcitonin receptor (CTR) (Homo sapiens, UniProt P30988).
T1 construct: expressed in transfected cells; host or cells: COS-7 (COS7-human CTR Clone #2)
T1 sequence (P30988 25-474): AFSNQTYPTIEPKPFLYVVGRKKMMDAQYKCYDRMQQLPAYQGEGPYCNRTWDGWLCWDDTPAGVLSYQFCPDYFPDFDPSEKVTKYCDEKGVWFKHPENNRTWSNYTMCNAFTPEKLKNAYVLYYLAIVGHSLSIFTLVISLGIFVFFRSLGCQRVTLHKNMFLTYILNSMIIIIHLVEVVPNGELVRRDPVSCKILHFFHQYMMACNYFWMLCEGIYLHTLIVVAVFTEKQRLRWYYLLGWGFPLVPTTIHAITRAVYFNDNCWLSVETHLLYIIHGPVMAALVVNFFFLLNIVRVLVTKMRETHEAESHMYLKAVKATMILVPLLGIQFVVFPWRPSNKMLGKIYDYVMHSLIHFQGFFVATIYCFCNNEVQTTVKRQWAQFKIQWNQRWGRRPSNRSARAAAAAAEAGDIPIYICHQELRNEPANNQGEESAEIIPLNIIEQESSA
The experiment in a line: Calcitonin Receptor (CTR) cAMP Assay. The note with it: COS7-human CTR Clone #2 stable cell line, cAMP dynamic 2 kit, 30 min; read-out: Calcitonin Receptor cAMP Stimulation Activity: EC50. It is filed as cell-based. Put shortly:
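COS-7 cells stably expressing human CTR (2000 cells/well) were incubated 30 min at 37 °C with 4-fold serially diluted compound in HBSS/20 mM HEPES/0.5 mM IBMX/0.1% casein. cAMP was detected by HTRF (665/615 nm) after 1 h at RT. % activity was normalised to vehicle and positive controls.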

The target of test [2] is T2, COS-7/AMY3 (human calcitonin receptor (CTR) and RAMP3) (Homo sapiens, UniProt O60896+P30988).
T2 construct: expressed in transfected cells; host or cells: COS-7
T2 sequence (O60896 24-148, one chain of several): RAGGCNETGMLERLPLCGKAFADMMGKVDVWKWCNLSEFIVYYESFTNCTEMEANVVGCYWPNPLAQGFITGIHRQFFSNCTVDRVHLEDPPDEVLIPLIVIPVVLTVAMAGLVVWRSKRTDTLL
The experiment in a line: Amylin Receptor cAMP Assay II. It is filed as cell-based. Particulars: values marked **: Amylin Receptor cAMP Assay II; COS-7/AMY3 cells, cAMP dynamic 2 kit, 30 min; read-out: Amylin Receptor cAMP Stimulation Activity: EC50. Put shortly:
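COS-7 cells stably co-expressing human CTR and RAMP3 (AMY3), 2000 cells/well in HBSS with 20 mM HEPES, 0.5 mM IBMX, 0.1% casein, stimulated with compound for 30 min at 37 °C. cAMP measured by HTRF (665/615 nm), activity normalized between vehicle and maximal control.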

For `CC(C)C1CS(=O)(=O)c2c1nc(CCC1CCOCC1)c(-c1cc(=O)[nH]o1)c2-c1ccc2c(ccn2Cc2ccc(C#N)c(F)c2)c1` (stereo not shown) [Compound 199, 2-fluoro-4-[[5-[3-isopropyl-1,1-dioxo-6-(3-oxoisoxazol-5-yl)-5-(2-tetrahydropyran-4-ylethyl)-2,3-dihydrothieno[3,2-b]pyridin-7-yl]indol-1-yl]methyl]benzonitrile], the 50% effective concentration (EC50) is 3.7 nM in test [1] and 301 nM in test [2].
Taken in the same sequence, the figures for `COc1cccc2c1CC[C@H]2Nc1nccc2cc(-c3c4c(nc(CCc5ccc(F)cc5)c3-c3n[nH]c(=O)o3)[C@@H]3COCCN3C4=O)sc12` [Compound 174, (R)-2-(4-fluorophenethyl)-4-(7-(((R)-4-methoxy-2,3-dihydro-1H-inden-1-yl)amino)thieno[2,3-c]pyridin-2-yl)-3-(5-oxo-4,5-dihydro-1,3,4-oxadiazol-2-yl)-7,8,10,10a-tetrahydro-5H-pyrido[2′,3′:3,4]pyrrolo[2,1-c][1,4]oxazin-5-one] were 0.347 nM and 31.9 nM.
Taken in the same sequence, the figures for `COc1cccc2c1CC[C@H]2Nc1nccc2cc(-c3c4c(nc(CCc5ccc(-n6cccn6)cc5)c3-c3n[nH]c(=O)o3)[C@@H]3CCCN3C4=O)sc12` [Compound 243, 5-((S)-2-(4-(1H-pyrazol-1-yl)phenethyl)-4-(7-(((R)-4-methoxy-2,3-dihydro-1H-inden-1-yl)amino)thieno[2,3-c]pyridin-2-yl)-5-oxo-7,8,9,9a-tetrahydro-5H-pyrido[2,3-a]pyrrolizin-3-yl)-1,3,4-oxadiazol-2(3H)-one] were 1.18 nM and 11.2 nM.
Taken in the same sequence, the figures for `O=C1c2c(nc(CCc3ccc(F)cc3)c(-c3n[nH]c(=O)o3)c2-c2cc3cc(C(F)F)nc(N[C@@H]4CCOc5c(F)cc(F)cc54)c3s2)C23CC(CN12)C3` [Compound 297, (R)-5-(4-(7-((6,8-difluorochroman-4-yl)amino)-5-(difluoromethyl)thieno[2,3-c]pyridin-2-yl)-2-(4-fluorophenethyl)-5-oxo-8,9-dihydro-5H,7H-8,9a-methanopyrido[2,3-a]pyrrolizin-3-yl)-1,3,4-oxadiazol-2(3H)-one] were 0.0413 nM and 1.07 nM.
With `N#Cc1ccc(Cn2c(=O)oc3cc(-c4c(-c5n[nH]c(=O)o5)c(CCc5ccc(F)cc5)nc5c4c(=O)n4n5CCC4)ccc32)cc1F` [Compound 162, 2-fluoro-4-((6-(2-(4-fluorophenethyl)-5-oxo-3-(5-oxo-4,5-dihydro-1,3,4-oxadiazol-2-yl)-8,9-dihydro-5H,7H-pyrazolo[1′,2′:1,2]pyrazolo[3,4-b]pyridin-4-yl)-2-oxobenzo[d]oxazol-3(2H)-yl)methyl)benzonitrile], the EC50 in test [1] was 0.157 nM; in test [2] it was 3.71 nM.
Taken in the same sequence, the figures for `COc1cccc2c1CC[C@H]2Nc1nccc2cc(-c3c4c(nc(CCC5CCOCC5)c3-c3cc(=O)[nH]o3)[C@@H]3CCCN3C4=O)sc12` [Compound 205, 5-((S)-4-(7-(((R)-4-methoxy-2,3-dihydro-1H-inden-1-yl)amino)thieno[2,3-c]pyridin-2-yl)-5-oxo-2-(2-(tetrahydro-2H-pyran-4-yl)ethyl)-7,8,9,9a-tetrahydro-5H-pyrido[2,3-a]pyrrolizin-3-yl)isoxazol-3(2H)-one] were 5.7 nM and 342 nM.
Taken in the same sequence, the figures for `COc1cc(F)cc2c1CC[C@H]2Nc1nccc2cc(-c3c4c(nc(CCc5ccc(F)cc5)c3-c3n[nH]c(=O)o3)[C@@H]3CCCN3C4=O)sc12` [Compound 258, 5-((S)-4-(7-(((R)-6-fluoro-4-methoxy-2,3-dihydro-1H-inden-1-yl)amino)thieno[2,3-c]pyridin-2-yl)-2-(4-fluorophenethyl)-5-oxo-7,8,9,9a-tetrahydro-5H-pyrido[2,3-a]pyrrolizin-3-yl)-1,3,4-oxadiazol-2(3H)-one] were 0.171 nM and 1.91 nM.
In the case of `COc1cccc2c1CC[C@H]2Nc1nccc2cc(-c3c4c(nc(CCC5CCCCC5)c3-c3n[nH]c(=O)o3)[C@@H]3CCCN3C4=O)sc12` [Compound 172, 5-((S)-2-(2-cyclohexylethyl)-4-(7-(((R)-4-methoxy-2,3-dihydro-1H-inden-1-yl)amino)thieno[2,3-c]pyridin-2-yl)-5-oxo-7,8,9,9a-tetrahydro-5H-pyrido[2,3-a]pyrrolizin-3-yl)-1,3,4-oxadiazol-2(3H)-one], the concentration giving a half-maximal response (EC50) turned out to be 2.06 nM in test [1] and 51.1 nM in test [2].
Taken in the same sequence, the figures for `COc1cccc2c1CC[C@H]2Nc1nc(C(F)F)cc2cc(-c3c4c(nc(CCc5ccc(F)cc5)c3-c3n[nH]c(=O)o3)[C@@H]3CCCN3C4=O)sc12` [Compound 188, 5-((S)-4-(5-(difluoromethyl)-7-(((R)-4-methoxy-2,3-dihydro-1H-inden-1-yl)amino)thieno[2,3-c]pyridin-2-yl)-2-(4-fluorophenethyl)-5-oxo-7,8,9,9a-tetrahydro-5H-pyrido[2,3-a]pyrrolizin-3-yl)-1,3,4-oxadiazol-2(3H)-one] were 0.223 nM and 6.57 nM.
With `O=C1c2c(nc(CCc3ccc(F)cc3)c(-c3n[nH]c(=O)o3)c2-c2cc3ccnc(N[C@@H]4CCc5ccccc54)c3s2)[C@@H]2CCCN12` [Compound 226, 5-((S)-4-(7-(((R)-2,3-dihydro-1H-inden-1-yl)amino)thieno[2,3-c]pyridin-2-yl)-2-(4-fluorophenethyl)-5-oxo-7,8,9,9a-tetrahydro-5H-pyrido[2,3-a]pyrrolizin-3-yl)-1,3,4-oxadiazol-2(3H)-one], the 50% effective concentration (EC50) in test [1] was found to be 1.08 nM; in test [2], 14.2 nM.
Taken in the same sequence, the figures for `COc1cc(F)cc2c1CC[C@H]2Nc1nccc2cc(-c3c4c(nc(CCc5ccc(F)cc5)c3-c3n[nH]c(=O)o3)C35CC(CN3C4=O)C5)sc12` [Compound 294, (R)-5-(4-(7-((6-fluoro-4-methoxy-2,3-dihydro-1H-inden-1-yl)amino)thieno[2,3-c]pyridin-2-yl)-2-(4-fluorophenethyl)-5-oxo-5,7,8,9-tetrahydro-8,9a-methanopyrido[2,3-a]pyrrolizin-3-yl)-1,3,4-oxadiazol-2(3H)-one] were 0.0435 nM and 0.562 nM.
Taken in the same sequence, the figures for `N#Cc1ccc(Cn2ccc3cc(-c4c(-c5n[nH]c(=O)o5)c(CCc5ccc(F)cc5)nc5c4c(=O)n4n5CCC4)cnc32)cc1F` [Compound 161] were 1.82 nM and 35.8 nM.
Taken in the same sequence, the figures for `COc1cccc2c1CC[C@H]2Nc1nccc2cc(-c3c4c(nc(CCc5ccc(F)cc5)c3-c3n[nH]c(=O)s3)[C@@H]3CCCN3C4=O)sc12` [Compound 225, 5-((S)-2-(4-fluorophenethyl)-4-(7-(((R)-4-methoxy-2,3-dihydro-1H-inden-1-yl)amino)thieno[2,3-c]pyridin-2-yl)-5-oxo-7,8,9,9a-tetrahydro-5H-pyrido[2,3-a]pyrrolizin-3-yl)-1,3,4-thiadiazol-2(3H)-one] were 0.836 nM and 14.6 nM.
Consider `O=C1c2c(nc(CCc3ccc(F)cc3)c(-c3n[nH]c(=O)o3)c2-c2ccc3c(c2)oc(=O)n3Cc2ccc(F)cn2)[C@@H]2CCCN12` [Compound 164, (S)-6-(2-(4-fluorophenethyl)-5-oxo-3-(5-oxo-4,5-dihydro-1,3,4-oxadiazol-2-yl)-7,8,9,9a-tetrahydro-5H-pyrido[2,3-a]pyrrolizin-4-yl)-3-((5-fluoropyridin-2-yl)methyl)benzo[d]oxazol-2(3H)-one], for which the values for the EC50 in test [1] and in test [2] were 4.28 nM and 39.9 nM, respectively.
